In publication PMC12441834, “Highly Potent and Subtype-Selective Sperm-Specific Potassium Channel SLO3 Inhibitors Display High Tissue Exposure in the Murine Female Reproductive Tract” (ACS Pharmacology & Translational Science, 2025):
Where two headings read alike, the source gives them in different places.

Columns and labels:
[1] = Drug concentrations in compartments of the murine FRT after IP dosing; type: in vivo, mouse; settings: 10 mg/kg IP; for concentration at 0.25 hr / concentration at 0.5 hr / concentration at 1 hr / concentration at 3 hr / concentration at 6 hr / concentration at 24 hr: mouse
Description: (§1) Samples were analyzed via electrospray ionization (ESI) LC-MS/MS on an AB Sciex 4500 (Foster City, CA) triple-quadrupole instrument that was coupled with an Agilent 1290 Infinity Binary Pump and multisampler (Santa Clara, CA) and concentrations (ng/mL or ng/g) were determined using a matrix-matched 10-point standard curve and then converted to nM concentrations. Quantitation of compounds was performed via AB Sciex Multiquant software using the raw analyte:IS peak area ratios. The typical detection range was 0.5 ng/mL to ≥5000 ng/mL utilizing a quadratic equation regression with 1/x² weighting. Correction for dilution of all tissue samples was performed postquantitation. The corrections for dilution in the extraction buffer employed correction factors specific to each tissue weight.
In subsequent experiments, mice were dosed by injection into the peritoneum (ip) as a single 10 mg/kg dose, the reproductive organs were dissected, and the ovaries, the oviducts, and the uterus were pooled from 2 animals and frozen. Tissues were subjected to mechanical homogenization (Mini-BeadBeater, BioSpec Products, Inc., Bartlesville, OK) in the presence of stainless-steel beads (1.0 mm) and extraction buffer (isopropanol:water, 7:3, v/v; 1 mL per sample for whole reproductive organs and uterus and 250 μL for ovaries and oviducts). Homogenized tissue samples were then centrifuged (4000 rcf, 5 min, ambient temperature), and 5 μL of the supernatant was used for quantification of the analyte. The plasma standard curve and QCs were used for compound quantitation in reproductive tissues.

[2] = Discrete IV PK in female mice; type: in vivo, mouse; settings: 5 mg/kg IV
Description: In-life phase–Compounds were formulated in 12% ethanol, 48% PEG400, and 40% DMSO (v/v/v) at a concentration of 1 mg/mL and administered as a single 0.2 mg/kg IV dose (1 mL/kg) to male, Sprague–Dawley rats (n = 1; 342 g body weight) via injection into a surgically implanted jugular vein catheter. Blood samples were collected serially from a surgically implanted carotid artery catheter in each animal over multiple postadministration time points (0.033, 0.117, 0.25, 0.5, 1, 2, 4, 7, and 24 h) into chilled, K2EDTA anticoagulant-fortified tubes and immediately placed on wet ice. The blood samples were then centrifuged (1700 rcf, 5 min, 4 °C) in order to obtain plasma samples, which were stored at −80 °C until analysis by LC-MS/MS. VU6032735 was also dosed IV in C57Bl6 mice at 5 mg/kg IV to determine mouse PK. Formulation and experimental design were identical to those used for rats except that whole blood was used for analysis.
as §1

hSLO2.2 = target: T1, hSLO2.2 (Homo sapiens, UniProt Q5JUK3); experiment: SLO2.2 inhibition in HEK cells; type: cell-based
T1 construct: expressed in transfected cells; host or cells: HEK
T1 sequence (Q5JUK3 whole entry): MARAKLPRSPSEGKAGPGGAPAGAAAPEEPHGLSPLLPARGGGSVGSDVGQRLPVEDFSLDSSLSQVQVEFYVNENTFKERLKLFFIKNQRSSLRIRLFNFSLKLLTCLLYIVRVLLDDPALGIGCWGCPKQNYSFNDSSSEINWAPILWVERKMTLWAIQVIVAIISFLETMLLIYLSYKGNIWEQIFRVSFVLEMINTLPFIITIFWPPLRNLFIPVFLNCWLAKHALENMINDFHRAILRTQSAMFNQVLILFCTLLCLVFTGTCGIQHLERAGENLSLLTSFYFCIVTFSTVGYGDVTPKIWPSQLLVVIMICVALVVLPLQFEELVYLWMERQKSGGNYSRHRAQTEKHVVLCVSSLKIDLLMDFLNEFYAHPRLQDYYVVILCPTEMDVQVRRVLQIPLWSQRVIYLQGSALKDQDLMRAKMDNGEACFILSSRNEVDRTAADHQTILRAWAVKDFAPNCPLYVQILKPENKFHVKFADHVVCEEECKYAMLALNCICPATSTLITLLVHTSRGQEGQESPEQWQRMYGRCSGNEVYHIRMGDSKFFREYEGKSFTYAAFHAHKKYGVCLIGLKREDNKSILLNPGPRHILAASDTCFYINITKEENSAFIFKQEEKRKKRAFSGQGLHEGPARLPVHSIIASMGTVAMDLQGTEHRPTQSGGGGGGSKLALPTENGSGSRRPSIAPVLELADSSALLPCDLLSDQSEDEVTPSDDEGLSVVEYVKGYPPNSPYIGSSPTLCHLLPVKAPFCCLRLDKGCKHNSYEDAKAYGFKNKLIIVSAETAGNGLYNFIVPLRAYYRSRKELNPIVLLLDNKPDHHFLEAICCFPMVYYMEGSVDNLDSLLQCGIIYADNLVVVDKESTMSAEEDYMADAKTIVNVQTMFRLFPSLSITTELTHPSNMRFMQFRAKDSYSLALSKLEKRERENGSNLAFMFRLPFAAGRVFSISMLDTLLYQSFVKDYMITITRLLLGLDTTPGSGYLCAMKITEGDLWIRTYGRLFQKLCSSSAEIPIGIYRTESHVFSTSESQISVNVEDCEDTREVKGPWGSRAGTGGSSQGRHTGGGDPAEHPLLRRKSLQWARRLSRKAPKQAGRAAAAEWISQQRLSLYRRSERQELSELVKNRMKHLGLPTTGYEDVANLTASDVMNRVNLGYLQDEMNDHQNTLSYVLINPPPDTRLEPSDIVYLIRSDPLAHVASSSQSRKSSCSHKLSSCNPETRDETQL

[3] = ovary, female mice, read-out: Ovary concentration
[4] = oviduct, female mice, read-out: Oviduct concentration
[5] = plasma, female mice, read-out: Plasma concentration
[6] = uterus, female mice, read-out: Uterus concentration

With `O=C(c1ccc(OCc2ccc(OC(F)(F)F)cc2)cc1)N1CCN(c2ccc(C(F)(F)F)cn2)CC1` [VU6032735] the “oviduct total drug concentration relative to mSLO3 IC50” value ([1]; 24 h, versus IC50 in mouse sperm and in mSLO3-γ2 HEK293 cells) was 4.4- to 5.5 fold, the “oviduct concentration relative to ovary” value ([1]; female mice) was 10 fold and the “oviduct concentration relative to uterus” value ([1]; female mice) was 5 fold. For the same molecule, the “total concentrations in the different compartments of the reproductive tract” value ([1]; female mice, for 24 h after dosing) was “above 1 μM”, the concentration at 0.25 hr [1, 3] was 7.52 µM and the concentration at 0.5 hr [1, 3] was 7.69 µM. The concentration at 1 hr [1, 3] was 7.45 µM, the concentration at 3 hr [1, 3] was 2.63 µM and the concentration at 6 hr [1, 3] was 3.54 µM. The concentration at 24 hr [1, 3] was 1.97 µM, the concentration at 0.25 hr [1, 4] was 73 µM and the concentration at 0.5 hr [1, 4] was 94.8 µM. It also gave a concentration at 1 hr [1, 4] of 95.2 µM, a concentration at 3 hr [1, 4] of 93.6 µM and a concentration at 6 hr [1, 4] of 35.3 µM. It also gave a concentration at 24 hr [1, 4] of 4.02 µM, a concentration at 0.25 hr [1, 5] of 1.15 µM and a concentration at 0.5 hr [1, 5] of 0.45 µM. It also gave a concentration at 1 hr [1, 5] of 0.62 µM, a concentration at 3 hr [1, 5] of 0.98 µM and a concentration at 6 hr [1, 5] of 2.14 µM. The concentration at 24 hr [1, 5] was 0.61 µM, the concentration at 0.25 hr [1, 6] was 12.4 µM and the concentration at 0.5 hr [1, 6] was 11.3 µM. It also gave a concentration at 1 hr [1, 6] of 21.8 µM, a concentration at 3 hr [1, 6] of 4.35 µM and a concentration at 6 hr [1, 6] of 6.66 µM. For the same molecule, the concentration at 24 hr [1, 6] was 3.11 µM, the CLobs [2] was 8.6 mL/min/kg and the AUC ([2]; C57Bl6, mouse, whole blood) was 9840 ng·h/mL. It also gave an MRT ([2]; C57Bl6, mouse, whole blood) of 45.9 h, a half-life ([2]; C57Bl6, mouse, whole blood, read-out: Elim. t1/2 (converted)) of 33.7 h and a Vd ([2]; C57Bl6, mouse, whole blood, read-out: Vss) of 23.6 L/kg.
With `Cc1cc(Cl)cc2sc(OC3CCN(C(=O)CCCS(=O)(=O)c4cccc(Br)c4)CC3F)nc12` (stereo not shown) [VU6045330] the “HEK hSLO2.2 % inhib. 10 μM” value (hSLO2.2) was “No inhibition”.
